Active and inactive are the calls of the source.
Tests used:
[1] = biological target: Ras and Rab interactor 1/Tyrosine-protein kinase ABL1 (Homo sapiens, UniProt P00519+Q13671); format: functional;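 note: biochemical TR-FRET dose-response test measuring inhibition of binding between Rin1 and Abl proteins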
[2] = biological target: Potassium voltage-gated channel subfamily KQT member 2 (Rattus norvegicus, UniProt O88943); assay: KCNQ2 potassium channel inhibitors, dose response, cell-based, automated electrophysiology, set II, rat KCNQ2 (AID 588637); format: functional
[3] = biological target: T1, Sentrin-specific protease 8 (Homo sapiens, UniProt Q96LD8); format: functional
T1 sequence (Q96LD8 whole entry): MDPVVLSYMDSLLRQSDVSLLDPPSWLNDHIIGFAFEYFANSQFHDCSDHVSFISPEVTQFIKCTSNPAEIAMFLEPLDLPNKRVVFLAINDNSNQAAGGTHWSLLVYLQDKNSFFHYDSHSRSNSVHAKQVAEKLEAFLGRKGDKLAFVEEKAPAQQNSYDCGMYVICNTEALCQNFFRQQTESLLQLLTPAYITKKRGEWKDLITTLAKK

BJ [4] = assay: cytotoxicity toward BJ-TERT fibroblasts, dose response, cell-based, RAS-independent, luminescence (AID 1933); format: functional; conditions: Homo sapiens
[5] = Shn3 3'UTR reporter inhibitors, dose response, cell-based, Clone20 osteoblasts, firefly luciferase, cherry-picked (AID 624132); format: functional;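 note: firefly luciferase luminescence from reporter carrying the Shn3 3'UTR in osteoblasts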
Beta Lactamase = Beta Lactamase (Pseudomonas aeruginosa, UniProt Q932Y6); assay: beta-lactamase reporter inhibitor potency, dose response, artefact control for TLR9-MyD88 binding inhibitor project, BLA reporter cells, FRET fluorescence (AID 588341); format: cell-based;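 note: cell based assay in CHO-K1 cells stably expressing beta-lactamase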
[6] = HepG2 cell cytotoxicity, dose response, cytotoxicity control for Shn3 inhibitor project, CellTiter-Glo, cherry-picked (AID 624134); format: functional, cell-based
[7] = biological target: Glucose-6-phosphate 1-dehydrogenase (Homo sapiens, UniProt P11413); assay: human G6PD enzyme inhibitors, dose response, selectivity assay for P. falciparum G6PD inhibitor project, biochemical, fluorescence (AID 504792); format: functional
Cytochrome P450 2D6 = Cytochrome P450 2D6 (Homo sapiens, UniProt P10635);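 note: CYP2D6 member of a cytochrome P450 panel assay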
Beta-galactosidase = Beta-galactosidase (Escherichia coli, UniProt Q8VNN2); assay: PubChem AID 485352; format: functional
[8] = control 3'UTR Renilla luciferase suppression, dose response, counter-screen for Shn3 inhibitor project, cell-based, Clone20-Shn3RL, cherry-picked (AID 624133); format: functional
Protein RecA = biological target: T2, Protein RecA (Mycobacterium tuberculosis, UniProt P9WHJ3); assay: Fluorescence Cell-Free Homogeneous Dose Retest to Identify Inhibitors of RecA-Intein Splicing Activity. [Related pubchem assays (depositor defined):AID2097, AID2223, AID489010, AID492950]; format: functional
T2 sequence (P9WHJ3 whole entry): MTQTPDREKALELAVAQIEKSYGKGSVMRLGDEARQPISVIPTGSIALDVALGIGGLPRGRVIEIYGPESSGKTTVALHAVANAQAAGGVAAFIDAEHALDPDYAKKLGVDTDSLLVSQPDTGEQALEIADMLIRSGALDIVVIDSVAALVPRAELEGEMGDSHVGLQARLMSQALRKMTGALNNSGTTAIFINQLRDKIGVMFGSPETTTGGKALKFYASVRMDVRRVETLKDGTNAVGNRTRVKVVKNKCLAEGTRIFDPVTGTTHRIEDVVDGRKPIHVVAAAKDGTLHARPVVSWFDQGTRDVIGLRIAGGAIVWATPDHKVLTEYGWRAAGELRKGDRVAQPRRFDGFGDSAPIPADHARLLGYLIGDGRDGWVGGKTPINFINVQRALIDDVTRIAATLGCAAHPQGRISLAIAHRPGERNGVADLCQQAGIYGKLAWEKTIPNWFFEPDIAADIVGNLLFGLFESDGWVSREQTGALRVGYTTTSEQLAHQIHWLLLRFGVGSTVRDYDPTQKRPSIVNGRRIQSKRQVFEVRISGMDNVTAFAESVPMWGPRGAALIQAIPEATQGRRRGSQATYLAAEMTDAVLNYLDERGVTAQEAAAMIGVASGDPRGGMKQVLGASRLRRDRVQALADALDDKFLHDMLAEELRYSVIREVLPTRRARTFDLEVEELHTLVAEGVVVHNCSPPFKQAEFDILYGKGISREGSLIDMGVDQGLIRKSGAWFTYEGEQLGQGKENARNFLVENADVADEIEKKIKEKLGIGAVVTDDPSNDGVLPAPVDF

BJ [9] = assay: cells; format: functional, cell-based; conditions: Homo sapiens
BJ [10] = assay: cytotoxicity toward BJ-TERT-LT-ST fibroblasts, dose response, cell-based, RAS-independent, luminescence (AID 1935); format: functional; conditions: Homo sapiens;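 note: BJ fibroblasts immortalized with TERT plus LT and ST oncogenes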
[11] = biological target: T3, Type-1 angiotensin II receptor (Homo sapiens, UniProt P30556); assay: AT1 receptor antagonists, dose response, selectivity assay for APJ receptor antagonist project, cell-based, uHTS hits (AID 463214); format: functional;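 note: antagonist potency against angiotensin II stimulated AT1 response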
T3 sequence (P30556 whole entry): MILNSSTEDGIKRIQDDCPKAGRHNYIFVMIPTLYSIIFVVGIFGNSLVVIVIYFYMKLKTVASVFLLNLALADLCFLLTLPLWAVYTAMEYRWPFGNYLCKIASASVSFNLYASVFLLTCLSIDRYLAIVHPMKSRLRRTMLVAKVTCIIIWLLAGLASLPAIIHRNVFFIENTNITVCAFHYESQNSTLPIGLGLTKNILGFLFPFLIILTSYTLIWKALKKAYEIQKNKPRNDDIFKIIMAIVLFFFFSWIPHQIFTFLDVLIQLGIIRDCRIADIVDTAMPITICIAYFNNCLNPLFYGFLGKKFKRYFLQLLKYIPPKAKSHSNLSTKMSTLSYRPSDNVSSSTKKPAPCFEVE

Fatty acid synthase [12] = biological target: T4, Fatty acid synthase (Homo sapiens, UniProt P49327); assay: FAS thioesterase domain inhibitors, dose response, biochemical, kinetic fluorescence intensity (AID 624326); format: functional;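 note: rate of fluorescence rise from hydrolysis of a fluorogenic O-methyl fluorescein ester substrate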
[13] = biological target: T5, Replicative DNA helicase DnaB (Mycobacterium tuberculosis, UniProt P9WMR3); assay: DnaB intein splicing inhibitors, dose response, biochemical, cell-free fluorescence (AID 449749); format: functional
T5 sequence (P9WMR3 whole entry): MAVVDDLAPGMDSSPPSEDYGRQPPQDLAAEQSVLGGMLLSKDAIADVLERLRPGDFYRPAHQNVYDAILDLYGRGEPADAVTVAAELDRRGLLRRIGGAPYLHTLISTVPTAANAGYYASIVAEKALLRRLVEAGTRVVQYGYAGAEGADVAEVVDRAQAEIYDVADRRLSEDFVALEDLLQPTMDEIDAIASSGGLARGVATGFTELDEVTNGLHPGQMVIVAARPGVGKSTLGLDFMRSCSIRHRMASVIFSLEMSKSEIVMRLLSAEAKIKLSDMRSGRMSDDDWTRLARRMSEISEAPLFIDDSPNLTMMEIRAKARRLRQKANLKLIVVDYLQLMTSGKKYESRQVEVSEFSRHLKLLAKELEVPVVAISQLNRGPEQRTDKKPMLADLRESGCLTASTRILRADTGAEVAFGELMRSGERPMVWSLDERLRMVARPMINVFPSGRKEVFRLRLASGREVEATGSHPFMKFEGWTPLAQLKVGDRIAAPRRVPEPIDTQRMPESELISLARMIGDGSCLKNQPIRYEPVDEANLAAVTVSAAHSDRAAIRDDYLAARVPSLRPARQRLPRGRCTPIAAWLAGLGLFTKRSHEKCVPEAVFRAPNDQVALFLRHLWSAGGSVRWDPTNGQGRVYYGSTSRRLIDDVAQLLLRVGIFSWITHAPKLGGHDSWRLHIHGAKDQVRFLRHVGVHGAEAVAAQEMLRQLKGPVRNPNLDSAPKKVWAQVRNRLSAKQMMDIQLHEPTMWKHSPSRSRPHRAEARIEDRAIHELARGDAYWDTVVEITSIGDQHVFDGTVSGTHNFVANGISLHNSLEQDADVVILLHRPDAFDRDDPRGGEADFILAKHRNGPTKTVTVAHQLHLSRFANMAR

[14] = THP-1 cell cytotoxicity, dose response, cytotoxicity control for Vif-APOBEC3G degradation inhibitor project, THP-1 cells (AID 1117359); format: functional; conditions: Human immunodeficiency virus 1, THP-1
[15] = Luminescence Cell-Based Dose Retest to Confirm Inhibitors of Cancer Stem Cells. [Related pubchem assays (depositor defined):AID2717, AID2721]; format: functional; conditions: Homo sapiens
Fatty acid synthase [16] = biological target: T4, Fatty acid synthase; assay: FAS thioesterase domain inhibitors, dose response, biochemical, endpoint fluorescence intensity, uHTS hits (AID 624327); format: functional;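 note: fluorescence from hydrolysis of an O-methyl fluorescein acyl ester substrate by the enzyme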
CHO = assay: cytotoxicity in TLR9-MyD88 CHO cells, dose response, cytotoxicity control for TLR9-MyD88 binding inhibitor project, cell-based, luminescence (AID 588339); format: functional, hamster; conditions: Cricetulus griseus;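 note: CHO cells stably coexpressing TLR9 and MyD88 fusions from primary screen; compound exposure lasted 48 hours before viability readout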
Cytochrome P450 3A4 = Cytochrome P450 3A4 (Homo sapiens, UniProt P08684);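 note: CYP3A4 tested as one member of a cytochrome P450 panel screen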
[17] = cytotoxicity toward DRD oncogenic fibroblasts, dose response, cell-based, non-viral oncogenic, luminescence (AID 1934); format: functional; conditions: Homo sapiens
[18] = biological target: T1, Sentrin-specific protease 8; format: functional; remark: listed apart in the source

T4 sequence (P49327 whole entry, the tested form may be a part): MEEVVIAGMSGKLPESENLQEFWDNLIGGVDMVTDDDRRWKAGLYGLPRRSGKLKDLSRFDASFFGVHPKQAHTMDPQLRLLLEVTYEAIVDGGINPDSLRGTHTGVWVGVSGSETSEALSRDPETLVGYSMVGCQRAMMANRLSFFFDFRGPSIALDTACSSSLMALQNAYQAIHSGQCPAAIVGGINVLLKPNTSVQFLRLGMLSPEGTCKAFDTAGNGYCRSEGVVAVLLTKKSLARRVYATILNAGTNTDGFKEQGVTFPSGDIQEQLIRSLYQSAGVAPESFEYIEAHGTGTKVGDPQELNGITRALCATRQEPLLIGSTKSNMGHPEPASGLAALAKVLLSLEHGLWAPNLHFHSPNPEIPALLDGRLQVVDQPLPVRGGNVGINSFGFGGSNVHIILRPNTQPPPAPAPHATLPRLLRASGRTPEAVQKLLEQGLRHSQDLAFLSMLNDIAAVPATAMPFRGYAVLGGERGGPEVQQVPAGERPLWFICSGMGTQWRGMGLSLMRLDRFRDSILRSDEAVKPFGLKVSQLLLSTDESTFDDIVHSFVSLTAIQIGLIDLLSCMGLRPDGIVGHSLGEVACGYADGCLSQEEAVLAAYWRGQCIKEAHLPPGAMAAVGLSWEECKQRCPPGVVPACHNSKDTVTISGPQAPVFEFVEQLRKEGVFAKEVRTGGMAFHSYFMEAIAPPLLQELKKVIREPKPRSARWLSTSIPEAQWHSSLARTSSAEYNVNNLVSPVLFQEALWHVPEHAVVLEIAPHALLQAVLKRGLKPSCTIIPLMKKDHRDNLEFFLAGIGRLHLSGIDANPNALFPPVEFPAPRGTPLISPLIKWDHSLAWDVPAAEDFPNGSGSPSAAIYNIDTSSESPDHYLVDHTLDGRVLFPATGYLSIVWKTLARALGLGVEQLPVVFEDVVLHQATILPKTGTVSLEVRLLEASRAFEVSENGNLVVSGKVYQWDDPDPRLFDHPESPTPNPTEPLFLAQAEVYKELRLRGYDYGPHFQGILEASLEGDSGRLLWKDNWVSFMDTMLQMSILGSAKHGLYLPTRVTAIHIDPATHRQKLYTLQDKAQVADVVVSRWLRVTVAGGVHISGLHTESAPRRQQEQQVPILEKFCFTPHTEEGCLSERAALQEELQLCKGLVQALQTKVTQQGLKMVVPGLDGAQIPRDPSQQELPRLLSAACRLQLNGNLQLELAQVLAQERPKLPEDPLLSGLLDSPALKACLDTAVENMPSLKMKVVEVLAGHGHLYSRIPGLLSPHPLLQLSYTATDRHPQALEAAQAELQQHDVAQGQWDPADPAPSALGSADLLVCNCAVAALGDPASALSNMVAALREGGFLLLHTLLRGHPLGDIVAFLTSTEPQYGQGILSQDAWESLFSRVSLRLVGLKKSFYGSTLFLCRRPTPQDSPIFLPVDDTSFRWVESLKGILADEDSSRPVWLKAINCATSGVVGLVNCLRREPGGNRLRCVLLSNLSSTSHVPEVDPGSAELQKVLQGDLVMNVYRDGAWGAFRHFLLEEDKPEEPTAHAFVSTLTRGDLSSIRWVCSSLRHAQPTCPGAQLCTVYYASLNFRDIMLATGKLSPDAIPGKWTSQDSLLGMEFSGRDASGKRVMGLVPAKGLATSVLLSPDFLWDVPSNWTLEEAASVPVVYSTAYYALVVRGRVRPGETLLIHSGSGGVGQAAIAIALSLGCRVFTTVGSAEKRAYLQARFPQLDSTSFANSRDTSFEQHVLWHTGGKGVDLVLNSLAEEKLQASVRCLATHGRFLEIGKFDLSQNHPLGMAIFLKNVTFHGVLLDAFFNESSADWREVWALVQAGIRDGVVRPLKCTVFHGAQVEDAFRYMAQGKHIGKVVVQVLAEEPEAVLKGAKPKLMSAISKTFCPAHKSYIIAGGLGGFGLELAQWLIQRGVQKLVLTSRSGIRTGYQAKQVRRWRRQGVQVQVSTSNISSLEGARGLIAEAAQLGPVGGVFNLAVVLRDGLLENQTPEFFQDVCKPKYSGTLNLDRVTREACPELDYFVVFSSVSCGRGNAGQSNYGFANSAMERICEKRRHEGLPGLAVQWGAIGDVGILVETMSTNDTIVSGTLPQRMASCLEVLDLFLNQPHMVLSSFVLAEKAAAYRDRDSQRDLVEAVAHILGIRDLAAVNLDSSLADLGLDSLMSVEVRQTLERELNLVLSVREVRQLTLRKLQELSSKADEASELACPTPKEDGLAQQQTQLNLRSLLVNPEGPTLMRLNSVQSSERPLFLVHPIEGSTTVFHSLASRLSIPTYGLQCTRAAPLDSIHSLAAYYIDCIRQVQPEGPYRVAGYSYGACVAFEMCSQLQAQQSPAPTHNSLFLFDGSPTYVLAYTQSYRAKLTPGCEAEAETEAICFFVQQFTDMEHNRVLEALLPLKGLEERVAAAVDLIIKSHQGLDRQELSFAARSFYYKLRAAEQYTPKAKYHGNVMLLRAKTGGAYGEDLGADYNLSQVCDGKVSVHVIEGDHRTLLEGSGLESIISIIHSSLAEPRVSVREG
Chain of Glucose-6-phosphate 1-dehydrogenase (P11413 whole entry): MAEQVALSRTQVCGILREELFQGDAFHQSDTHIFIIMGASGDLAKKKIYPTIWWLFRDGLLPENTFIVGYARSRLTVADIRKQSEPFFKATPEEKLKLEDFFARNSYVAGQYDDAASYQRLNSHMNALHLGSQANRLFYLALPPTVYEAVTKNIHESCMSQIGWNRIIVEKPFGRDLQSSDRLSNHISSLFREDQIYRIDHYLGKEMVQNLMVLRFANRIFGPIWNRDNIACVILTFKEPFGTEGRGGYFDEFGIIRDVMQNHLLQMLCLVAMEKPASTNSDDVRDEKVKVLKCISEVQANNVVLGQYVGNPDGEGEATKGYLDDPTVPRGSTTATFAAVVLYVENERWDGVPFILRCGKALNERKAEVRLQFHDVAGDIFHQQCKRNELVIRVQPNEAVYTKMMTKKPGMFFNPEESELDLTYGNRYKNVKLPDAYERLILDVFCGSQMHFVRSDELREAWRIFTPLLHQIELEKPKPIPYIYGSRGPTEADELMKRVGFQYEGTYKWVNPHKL
Chain of Ras and Rab interactor 1/Tyrosine-protein kinase ABL1 (P00519 whole entry): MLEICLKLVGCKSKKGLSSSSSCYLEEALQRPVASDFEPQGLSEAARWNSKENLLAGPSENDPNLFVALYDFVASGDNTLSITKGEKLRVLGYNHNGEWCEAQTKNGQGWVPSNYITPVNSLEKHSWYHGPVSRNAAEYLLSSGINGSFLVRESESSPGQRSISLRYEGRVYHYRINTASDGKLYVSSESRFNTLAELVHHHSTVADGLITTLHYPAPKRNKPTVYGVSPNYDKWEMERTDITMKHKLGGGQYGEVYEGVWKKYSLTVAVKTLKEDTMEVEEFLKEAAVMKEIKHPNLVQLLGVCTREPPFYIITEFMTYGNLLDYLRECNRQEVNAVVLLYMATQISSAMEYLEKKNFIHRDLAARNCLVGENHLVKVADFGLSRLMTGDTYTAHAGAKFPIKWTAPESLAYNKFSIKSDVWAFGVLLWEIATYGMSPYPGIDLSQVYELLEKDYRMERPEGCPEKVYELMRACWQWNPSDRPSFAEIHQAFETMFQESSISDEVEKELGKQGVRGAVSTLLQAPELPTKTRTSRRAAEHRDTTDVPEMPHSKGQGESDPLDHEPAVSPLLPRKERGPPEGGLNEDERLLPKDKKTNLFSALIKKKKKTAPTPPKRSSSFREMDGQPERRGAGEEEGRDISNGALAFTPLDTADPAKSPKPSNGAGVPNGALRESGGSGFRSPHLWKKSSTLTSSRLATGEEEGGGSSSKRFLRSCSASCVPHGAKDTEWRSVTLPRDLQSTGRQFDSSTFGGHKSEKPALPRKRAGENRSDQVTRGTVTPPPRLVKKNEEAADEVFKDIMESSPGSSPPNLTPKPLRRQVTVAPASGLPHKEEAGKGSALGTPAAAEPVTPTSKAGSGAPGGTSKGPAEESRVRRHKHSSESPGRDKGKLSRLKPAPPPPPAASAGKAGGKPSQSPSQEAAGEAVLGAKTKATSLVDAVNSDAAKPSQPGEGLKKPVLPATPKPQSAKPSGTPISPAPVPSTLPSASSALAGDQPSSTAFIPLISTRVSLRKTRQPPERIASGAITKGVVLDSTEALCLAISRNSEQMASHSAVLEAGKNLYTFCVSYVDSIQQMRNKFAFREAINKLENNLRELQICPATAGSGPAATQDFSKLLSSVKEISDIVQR
Chain of Ras and Rab interactor 1/Tyrosine-protein kinase ABL1 (Q13671 whole entry): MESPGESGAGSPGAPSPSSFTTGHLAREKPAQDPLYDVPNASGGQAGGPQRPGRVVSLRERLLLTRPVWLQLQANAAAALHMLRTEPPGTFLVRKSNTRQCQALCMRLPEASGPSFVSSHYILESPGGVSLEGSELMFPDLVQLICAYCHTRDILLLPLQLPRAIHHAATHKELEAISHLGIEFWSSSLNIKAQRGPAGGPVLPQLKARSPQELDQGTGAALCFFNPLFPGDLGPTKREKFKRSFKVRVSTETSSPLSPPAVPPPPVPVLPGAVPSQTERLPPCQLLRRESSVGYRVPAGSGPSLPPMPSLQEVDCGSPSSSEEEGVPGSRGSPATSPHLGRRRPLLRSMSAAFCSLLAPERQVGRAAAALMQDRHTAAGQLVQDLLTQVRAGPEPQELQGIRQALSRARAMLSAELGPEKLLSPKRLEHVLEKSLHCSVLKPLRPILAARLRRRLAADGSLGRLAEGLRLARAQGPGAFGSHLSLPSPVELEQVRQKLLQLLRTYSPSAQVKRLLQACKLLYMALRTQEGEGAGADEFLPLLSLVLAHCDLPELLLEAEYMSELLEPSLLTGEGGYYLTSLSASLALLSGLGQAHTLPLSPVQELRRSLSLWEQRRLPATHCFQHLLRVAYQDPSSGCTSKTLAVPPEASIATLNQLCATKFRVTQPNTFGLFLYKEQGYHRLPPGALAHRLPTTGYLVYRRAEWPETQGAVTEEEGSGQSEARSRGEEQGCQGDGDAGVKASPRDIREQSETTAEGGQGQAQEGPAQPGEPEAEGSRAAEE

CC1(c2nnc(-c3ccncc3)o2)CC(c2ccc(F)cc2)=NO1 (centres undefined)
IC50 [1]: 10.8 µM (inactive)

Cc1ccc(-c2cc(C(=O)N3CC(C)OC(C)C3)c3ccccc3n2)o1 (centres undefined)
IC50 [2]: 0.61 µM (active)

CN(CCO)c1cc(Sc2nc3ccccc3s2)c2nonc2c1[N+](=O)[O-]
IC50 [3]: 18.8 µM (active) | EC50 (BJ [4]): 1.96 µM (active) | AC50 [5]: 1.55 µM (active) | IC50 (Beta Lactamase): 8.89 µM (active) | AC50 [6]: 29.3 µM (active) | IC50 [7]: > 80 µM (inactive) | AC50 (Cytochrome P450 2D6): 22.4 µM (inconclusive) | EC50 (Beta-galactosidase): > 40 µM (inactive) | AC50 [8]: 8.18 µM (active) | EC50 (Protein RecA): 0.49 µM (active) | EC50 (BJ [9]): 4.12 µM (active) | EC50 (BJ [10]): 4.95 µM (inconclusive) | IC50 [11]: 2.08 µM (active) | IC50 (Fatty acid synthase [12]): 2.14 µM (active) | AC50 [13]: 1.26 µM (active) | CC50 [14]: > 40 µM (active) | AC50 [15]: 1.62 µM (active) | IC50 (Fatty acid synthase [16]): 2.32 µM (active) | IC50 (CHO): 1.69 µM (active) | AC50 (Cytochrome P450 3A4): 22.4 µM (inconclusive) | EC50 [17]: 5.92 µM (active) | IC50 [18]: 28.1 µM (active)
